Test results published in PubChem BioAssay AID1918942 (Molecular Pharmacology Branch, DTP, NCI, 2023).

Test system: 743489-274-T-PDC complex spheroid viability
Experiment: Anticancer human tumor 743489-274-T-PDC patient-derived renal cell carcinoma cell line growth inhibition
Settings: for IC50: curve of first compound; for viability, T/C: stronger effect = lower value
Outline: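 Complex spheroids of tumor cells with HUVEC and human MSCs, exposed to iadademstat combined with other agents. Each agent tested in half-log steps from near clinical Cmax (else 10 microM top), DMSO ≤0.25%.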

[1] = second compound 0.1 µM, first compound 0.000316 µM
[2] = second compound 0.1 µM, first compound 0.001 µM
[3] = second compound 0.1 µM, first compound 0.00316 µM
[4] = second compound 0.1 µM, first compound 0.01 µM
[5] = second compound 0.1 µM, first compound 0.0316 µM
[6] = second compound 0.1 µM, first compound 0.1 µM
[7] = second compound 0.316 µM, first compound 0.000316 µM
[8] = second compound 0.316 µM, first compound 0.001 µM
[9] = second compound 0.316 µM, first compound 0.00316 µM
[10] = second compound 0.316 µM, first compound 0.01 µM
[11] = second compound 0.316 µM, first compound 0.0316 µM
[12] = second compound 0.316 µM, first compound 0.1 µM
[13] = second compound 1 µM, first compound 0.000316 µM
[14] = second compound 1 µM, first compound 0.001 µM
[15] = second compound 1 µM, first compound 0.00316 µM
[16] = second compound 1 µM, first compound 0.01 µM
[17] = second compound 1 µM, first compound 0.0316 µM
[18] = second compound 1 µM, first compound 0.1 µM
[19] = second compound 3.16 µM, first compound 0.000316 µM
[20] = second compound 3.16 µM, first compound 0.001 µM
[21] = second compound 3.16 µM, first compound 0.00316 µM
[22] = second compound 3.16 µM, first compound 0.01 µM
[23] = second compound 3.16 µM, first compound 0.0316 µM
[24] = second compound 3.16 µM, first compound 0.1 µM
[25] = second compound 10 µM, first compound 0.000316 µM
[26] = second compound 10 µM, first compound 0.001 µM
[27] = second compound 10 µM, first compound 0.00316 µM
[28] = second compound 10 µM, first compound 0.01 µM
[29] = second compound 10 µM, first compound 0.0316 µM
[30] = second compound 10 µM, first compound 0.1 µM
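Also: spheroids exposed to compounds for 7 days before readout.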
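For viability, T/C in this document: 100% = DMSO vehicle control wells.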

SMILES | IC50 (second compound 0.1 µM) [nM] | IC50 (second compound 0.316 µM) [nM] | IC50 (second compound 1 µM) [nM] | IC50 (second compound 3.16 µM) [nM] | IC50 (second compound 10 µM) [nM] | viability, T/C [1] [%] | viability, T/C [2] [%] | viability, T/C [3] [%] | viability, T/C [4] [%] | viability, T/C [5] [%] | viability, T/C [6] [%] | viability, T/C [7] [%] | viability, T/C [8] [%] | viability, T/C [9] [%] | viability, T/C [10] [%] | viability, T/C [11] [%] | viability, T/C [12] [%] | viability, T/C [13] [%] | viability, T/C [14] [%] | viability, T/C [15] [%] | other results
CC(C)CC(NC(=O)C(Cc1ccccc1)NC(=O)c1cnccn1)B(O)O (stereo not given) + NC1CC1c1ccc(-c2cccc(O)c2)cc1 | 7.45 | 7.39 | 7.95 | 7.95 | 6.77 | 122 | 102 | 93.9 | 33.9 | 32.3 | 24.2 | 119 | 109 | 111 | 25.3 | 30.7 | 28.5 | 113 | 104 | 102 | viability, T/C [16]: 35.9%; viability, T/C [17]: 36.8%; viability, T/C [18]: 19.4%; viability, T/C [19]: 123%; viability, T/C [20]: 136%; viability, T/C [21]: 105%; viability, T/C [22]: 36.5%; viability, T/C [23]: 28.5%; viability, T/C [24]: 20.7%; viability, T/C [25]: 110%; viability, T/C [26]: 118%; viability, T/C [27]: 98.7%; viability, T/C [28]: 25%; viability, T/C [29]: 25.5%; viability, T/C [30]: 14.5%
CC(C)CC(NC(=O)CNC(=O)c1cc(Cl)ccc1Cl)B1OC(=O)CC(CC(=O)O)(C(=O)O)O1 (stereo not given) + NC1CC1c1ccc(-c2cccc(O)c2)cc1 | 83.1 | > 100 | 84.5 | > 100 | 49.9 | 105 | 114 | 97.8 | 80.7 | 74.3 | 45 | 102 | 102 | 94.5 | 77.6 | 76.5 | 52.8 | 103 | 106 | 104 | viability, T/C [16]: 80%; viability, T/C [17]: 66.1%; viability, T/C [18]: 46.6%; viability, T/C [19]: 90%; viability, T/C [20]: 105%; viability, T/C [21]: 102%; viability, T/C [22]: 68.2%; viability, T/C [23]: 60.8%; viability, T/C [24]: 45.2%; viability, T/C [25]: 95.8%; viability, T/C [26]: 108%; viability, T/C [27]: 101%; viability, T/C [28]: 80.1%; viability, T/C [29]: 59.7%; viability, T/C [30]: 37.7%
